Where two headings read alike, the source gives them in different places.
Assays:
human P2X2/3 receptor = biological target: T1, human P2X2/3 receptor (Homo sapiens, UniProt P56373+Q9UBL9); experiment: P2X3/P2X2/3 FLIPR (Fluorometric Imaging Plate Reader) Assay, P2X2/3; assay type: cell-based
T1 construct: expressed in transfected cells; host or cells: CHO-K1
T1 sequence (Q9UBL9 1-471): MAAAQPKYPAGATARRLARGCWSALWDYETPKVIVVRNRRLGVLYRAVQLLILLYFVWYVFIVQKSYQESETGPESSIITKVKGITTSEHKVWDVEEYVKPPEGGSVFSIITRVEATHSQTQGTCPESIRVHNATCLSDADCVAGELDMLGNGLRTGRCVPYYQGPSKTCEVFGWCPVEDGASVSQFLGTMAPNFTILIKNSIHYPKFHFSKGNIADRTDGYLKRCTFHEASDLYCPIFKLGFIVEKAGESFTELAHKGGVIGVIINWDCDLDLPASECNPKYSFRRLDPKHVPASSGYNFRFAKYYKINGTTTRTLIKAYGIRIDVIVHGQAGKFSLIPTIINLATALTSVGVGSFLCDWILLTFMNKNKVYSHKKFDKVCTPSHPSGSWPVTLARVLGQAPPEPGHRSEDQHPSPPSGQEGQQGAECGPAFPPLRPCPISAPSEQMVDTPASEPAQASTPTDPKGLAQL
T1 sequence (P56373 1-397): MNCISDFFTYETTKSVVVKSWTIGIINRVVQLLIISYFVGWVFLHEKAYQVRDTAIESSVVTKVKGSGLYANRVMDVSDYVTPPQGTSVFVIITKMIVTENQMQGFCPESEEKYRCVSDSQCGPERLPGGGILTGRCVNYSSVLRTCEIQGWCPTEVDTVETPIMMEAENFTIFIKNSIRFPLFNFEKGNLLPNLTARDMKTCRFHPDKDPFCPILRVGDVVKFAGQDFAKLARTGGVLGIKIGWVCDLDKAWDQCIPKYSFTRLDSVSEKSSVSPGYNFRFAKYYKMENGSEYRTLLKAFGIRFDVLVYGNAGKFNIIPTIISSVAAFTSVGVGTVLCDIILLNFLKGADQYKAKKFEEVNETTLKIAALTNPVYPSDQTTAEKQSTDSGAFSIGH
Experimental: (§1) P2X3/P2X2/3 FLIPR (Fluorometric Imaging Plate Reader) Assay
(§2) CHO-K1 cells were transfected with cloned rat P2X3 or human P2X2/3 receptor subunits and passaged in flasks. 18-24 hours before the FLIPR experiment, cells were released from their flasks, centrifuged, and resuspended in nutrient medium at 2.5×10^5 cells/ml. The cells were aliquoted into black-walled 96-well plates at a density of 50,000 cells/well and incubated overnight in 5% CO2 at 37° C. On the day of the experiment, cells were washed in FLIPR buffer (calcium- and magnesium-free Hank's balanced salt solution, 10 mM HEPES, 2 mM CaCl2, 2.5 mM probenecid; FB). Each well received 100 μl FB and 100 μl of the fluorescent dye Fluo-3 AM [2 μM final conc.]. After a 1 hour dye loading incubation at 37° C., the cells were washed 4 times with FB, and a final 75 μl/well FB was left in each well.
(§3) Test compounds (dissolved in DMSO at 10 mM and serially diluted with FB) or vehicle were added to each well (25 μl of a 4× solution) and allowed to equilibrate for 20 minutes at room temperature. The plates were then placed in the FLIPR and a baseline fluorescence measurement (excitation at 488 nm and emission at 510-570 nm) was obtained for 10 seconds before a 100 μl/well agonist or vehicle addition. The agonist was a 2× solution of α,β-meATP producing a final concentration of 1 μM (P2X3) or 5 μM (P2X2/3). Fluorescence was measured for an additional 2 minutes at 1 second intervals after agonist addition. A final addition of ionomycin (5 μM, final concentration) was made to each well of the FLIPR test plate to establish cell viability and maximum fluorescence of dye-bound cytosolic calcium. Peak fluorescence in response to the addition of α,β-meATP (in the absence and presence of test compounds) was measured and inhibition curves generated using nonlinear regression. PPADS, a standard P2X antagonist, was used as a positive control.

rat P2X3 receptor = biological target: T2, rat P2X3 receptor (Rattus norvegicus, UniProt P49654); experiment: P2X3/P2X2/3 FLIPR (Fluorometric Imaging Plate Reader) Assay, P2X3; assay type: cell-based; conditions: for Ki: CHO-K1 cells transfected with rat P2X3, agonist α,β-meATP 1 μM, Table 1, read-out: P2X3 pKi (converted)
T2 construct: expressed in transfected cells; host or cells: CHO-K1
T2 sequence (P49654 1-397): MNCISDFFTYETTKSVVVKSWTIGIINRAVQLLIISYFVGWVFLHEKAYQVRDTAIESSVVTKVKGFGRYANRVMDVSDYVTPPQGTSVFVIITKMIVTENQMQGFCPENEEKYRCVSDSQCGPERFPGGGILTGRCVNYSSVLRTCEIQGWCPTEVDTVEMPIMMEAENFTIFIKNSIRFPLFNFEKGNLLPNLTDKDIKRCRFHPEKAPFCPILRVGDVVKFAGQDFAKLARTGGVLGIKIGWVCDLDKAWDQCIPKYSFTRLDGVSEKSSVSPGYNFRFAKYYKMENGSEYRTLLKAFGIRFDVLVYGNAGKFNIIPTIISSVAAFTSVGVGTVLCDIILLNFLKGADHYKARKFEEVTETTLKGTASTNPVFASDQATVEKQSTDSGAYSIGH
Experimental: as §1, §2, §3

[1] = CHO-K1 cells transfected with human P2X2/3, agonist α,β-meATP 5 μM, Table 1, read-out: P2X2/3 pKi (converted)

Structure (SMILES)	Ki (human P2X2/3 receptor; [1]) [nM]	Ki (rat P2X3 receptor) [nM]	IC50 (rat P2X3 receptor; text b666, CHO-K1 cells, α,β-meATP 1 μM, read-out: pIC50 for the P2X3 receptor (converted)) [nM]	Ki (human P2X2/3 receptor; text b666, CHO-K1 cells, α,β-meATP 5 μM, read-out: pKi for the P2X2/3 receptor (converted)) [nM]
Cc1ccc(-c2cc(C(=O)NC(C)CO)cc(-n3ncnc3C(C)C)c2)cc1 (stereo not drawn) [Compound 16, 5-(5-Isopropyl-[1,2,4]triazol-1-yl)-4′-methyl-biphenyl-3-carboxylic acid (2-hydroxy-1-methyl-ethyl)-amide]	295	3.55		
Cc1ccc(-c2cc(C(=O)N[C@@H](C)CO)cc(-n3ncnc3C(C)C)c2)cc1 [Compound 17, 5-(5-Isopropyl-[1,2,4]triazol-1-yl)-4′-methyl-biphenyl-3-carboxylic acid ((S)-2-hydroxy-1-methyl-ethyl)-amide]	141	2.88		
Cc1ccc(-c2cc(C(=O)NC(C)c3cnccn3)cc(-n3ncnc3C(C)C)c2)cc1 (stereo not drawn) [Compound 18, 5-(5-Isopropyl-[1,2,4]triazol-1-yl)-4′-methyl-biphenyl-3-carboxylic acid (1-pyrazin-2-yl-ethyl)-amide]	24	3.09		
Cc1ccc(-c2cc(C(=O)NC(C)c3cnccn3)cc(-n3cnnc3C(C)C)c2)cc1 (stereo not drawn) [Compound 19]	1290	5.89		
COC[C@@H](C)NC(=O)c1cc(-c2ccc(C)cc2)cc(-n2cnnc2C(C)C)c1 [Compound 20, 5-(3-Isopropyl-[1,2,4]triazol-4-yl)-4′-methyl-biphenyl-3-carboxylic acid ((R)-2-methoxy-1-methyl-ethyl)-amide]	10000	372		
Cc1ccc(-c2cc(C(=O)N[C@@H](C)CO)cc(-n3cnnc3C(C)C)c2)cc1 [Compound 21, 5-(3-Isopropyl-[1,2,4]triazol-4-yl)-4′-methyl-biphenyl-3-carboxylic acid ((S)-2-hydroxy-1-methyl-ethyl)-amide]	10000	977		
Cc1ccc(-c2cc(C(=O)NC(C)CO)cc(-n3nncc3C(C)C)c2)c(F)c1 (stereo not drawn) [Compound 23, 2′-Fluoro-5-(5-isopropyl-[1,2,3]triazol-1-yl)-4′-methyl-biphenyl-3-carboxylic acid (2-hydroxy-1-methyl-ethyl)-amide]	355	5.75		
Cc1ccc(-c2cc(C(=O)N[C@@H](C)CO)cc(-n3nncc3C(C)C)c2)c(F)c1 [Compound 24, 2′-Fluoro-5-(5-isopropyl-[1,2,3]triazol-1-yl)-4′-methyl-biphenyl-3-carboxylic acid ((S)-2-hydroxy-1-methyl-ethyl)-amide]	324	3.31		
Cc1ccc(-c2cc(C(=O)NC(C)c3cnccn3)cc(-n3nncc3C(C)C)c2)c(F)c1 (stereo not drawn) [Compound 25, 2′-Fluoro-5-(5-isopropyl-[1,2,3]triazol-1-yl)-4′-methyl-biphenyl-3-carboxylic acid (1-pyrazin-2-yl-ethyl)-amide]	72.4	12		
Cc1ccc(-c2cc(C(=O)NC(C)CO)cc(-n3cnnc3C(C)C)c2)cc1 (stereo not drawn) [Compound 26, 5-(3-Isopropyl-[1,2,4]triazol-4-yl)-4′-methyl-biphenyl-3-carboxylic acid (2-hydroxy-1-methyl-ethyl)-amide]	10000	155		
Cc1ccc(-c2cc(C(=O)NC(C)CO)cc(-n3nc(C)nc3C(C)C)c2)cc1 (stereo not drawn) [Compound 28, 5-(5-Isopropyl-3-methyl-[1,2,4]triazol-1-yl)-4′-methyl-biphenyl-3-carboxylic acid (2-hydroxy-1-methyl-ethyl)-amide]	10000	64.6		
Cc1ccc(-c2cc(C(=O)N[C@@H](C)CO)cc(-n3nc(C)nc3C(C)C)c2)cc1 [Compound 29, 5-(5-Isopropyl-3-methyl-[1,2,4]triazol-1-yl)-4′-methyl-biphenyl-3-carboxylic acid ((S)-2-hydroxy-1-methyl-ethyl)-amide]	3630	46.8		
Cc1ccc(-c2cc(C(=O)NC(C)c3cnccn3)cc(-n3nc(C)nc3C(C)C)c2)cc1 (stereo not drawn) [Compound 30, 5-(5-Isopropyl-3-methyl-[1,2,4]triazol-1-yl)-4′-methyl-biphenyl-3-carboxylic acid (1-pyrazin-2-yl-ethyl)-amide]	135	4.57		
Cc1ccc(-c2cc(C(=O)NC(C)c3cnccn3)cc(-n3c(C)nnc3C(C)C)c2)cc1 (stereo not drawn) [Compound 31, 5-(3-Isopropyl-5-methyl-[1,2,4]triazol-4-yl)-4′-methyl-biphenyl-3-carboxylic acid (1-pyrazin-2-yl-ethyl)-amide]	398	35.5		
COC[C@@H](C)NC(=O)c1cc(-c2ccc(C)cc2)cc(-n2c(C)nnc2C(C)C)c1 [Compound 32, 5-(3-Isopropyl-5-methyl-[1,2,4]triazol-4-yl)-4′-methyl-biphenyl-3-carboxylic acid ((R)-2-methoxy-1-methyl-ethyl)-amide]	10000	427		
COC[C@@H](C)NC(=O)c1cc(-c2ccc(C)cc2F)cc(-n2ncnc2C(C)C)c1 [Compound 33, 2′-Fluoro-5-(5-isopropyl-[1,2,4]triazol-1-yl)-4′-methyl-biphenyl-3-carboxylic acid ((R)-2-methoxy-1-methyl-ethyl)-amide]	1380	4.07		
Cc1ccc(-c2cc(C(=O)NC(C)CO)cc(-n3ncnc3C(C)C)c2)c(F)c1 (stereo not drawn) [Compound 34, 2′-Fluoro-5-(5-isopropyl-[1,2,4]triazol-1-yl)-4′-methyl-biphenyl-3-carboxylic acid (2-hydroxy-1-methyl-ethyl)-amide]	427	3.24		
Cc1ccc(-c2cc(C(=O)N[C@@H](C)CO)cc(-n3ncnc3C(C)C)c2)c(F)c1 [Compound 35, 2′-Fluoro-5-(5-isopropyl-[1,2,4]triazol-1-yl)-4′-methyl-biphenyl-3-carboxylic acid ((S)-2-hydroxy-1-methyl-ethyl)-amide]	417	1.7	~1.7	
Cc1ccc(-c2cc(C(=O)NC(C)c3cnccn3)cc(-n3ncnc3C(C)C)c2)c(F)c1 (stereo not drawn) [Compound 36, 2′-Fluoro-5-(5-isopropyl-[1,2,4]triazol-1-yl)-4′-methyl-biphenyl-3-carboxylic acid (1-pyrazin-2-yl-ethyl)-amide]	22.9	3.72		~22.9
CCn1nncc1-c1cc(C(=O)N[C@H](C)COC)cc(-c2ccc(C)cc2)c1 [Compound 37, 5-(3-Ethyl-3H-[1,2,3]triazol-4-yl)-4′-methyl-biphenyl-3-carboxylic acid ((R)-2-methoxy-1-methyl-ethyl)-amide]	6760	380		
